Assay results from PubChem BioAssay (NCI).
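Where inhibition never reached the appropriate level, the endpoint shown equals the highest concentration tested. Otherwise, values were interpolated linearly from a five-concentration, 48-hour dose response in 96-well plates. GI50 is the concentration that inhibits growth by half. At the TGI there is no net growth.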

Key:
Assay in all cases: NCI-60 cell line screen, 48 h
M14 melanoma = system: M14 melanoma
A498 renal = system: A498 renal
MDA-MB-231 breast = system: MDA-MB-231 breast
SF-539 CNS = system: SF-539 CNS
SW-620 colon = system: SW-620 colon
EKVX NSCLC = system: EKVX NSCLC
DU-145 prostate = system: DU-145 prostate
SN12C renal = system: SN12C renal
NCI-H522 lung = system: NCI-H522 lung
OVCAR-4 ovarian = system: OVCAR-4 ovarian
ACHN renal = system: ACHN renal
IGROV1 ovarian = system: IGROV1 ovarian
OVCAR-5 ovarian = system: OVCAR-5 ovarian
OVCAR-3 ovarian = system: OVCAR-3 ovarian
MALME-3M melanoma = system: MALME-3M melanoma
HCC-2998 colon = system: HCC-2998 colon
MCF7 breast = system: MCF7 breast
HCT-15 colon = system: HCT-15 colon
HT29 colon = system: HT29 colon
MOLT-4 leukemia = system: MOLT-4 leukemia
TK-10 renal = system: TK-10 renal
RPMI-8226 leukemia = system: RPMI-8226 leukemia
COLO 205 colon = system: COLO 205 colon
UO-31 renal = system: UO-31 renal
SK-MEL-5 melanoma = system: SK-MEL-5 melanoma
SNB-19 CNS = system: SNB-19 CNS
PC-3 prostate = system: PC-3 prostate
UACC-62 melanoma = system: UACC-62 melanoma
SF-295 CNS = system: SF-295 CNS
HOP-92 NSCLC = system: HOP-92 NSCLC
SNB-75 CNS = system: SNB-75 CNS
SK-MEL-2 melanoma = system: SK-MEL-2 melanoma
HOP-62 NSCLC = system: HOP-62 NSCLC
BT-549 breast = system: BT-549 breast
HCT-116 colon = system: HCT-116 colon
OVCAR-8 ovarian = system: OVCAR-8 ovarian
NCI/ADR-RES ovarian = system: NCI/ADR-RES ovarian
K-562 leukemia = system: K-562 leukemia
CCRF-CEM leukemia = system: CCRF-CEM leukemia
NCI-H226 lung = system: NCI-H226 lung
KM12 colon = system: KM12 colon
HL-60(TB) leukemia = system: HL-60(TB) leukemia
T-47D breast = system: T-47D breast
U251 CNS = system: U251 CNS
SR leukemia = system: SR leukemia
NCI-H460 lung = system: NCI-H460 lung
786-0 renal = system: 786-0 renal
A549 NSCLC = system: A549 NSCLC
LOX IMVI melanoma = system: LOX IMVI melanoma
HS 578T breast = system: HS 578T breast
SK-MEL-28 melanoma = system: SK-MEL-28 melanoma
NCI-H23 lung = system: NCI-H23 lung
RXF 393 renal = system: RXF 393 renal
MDA-MB-435 = system: MDA-MB-435
SF-268 CNS = system: SF-268 CNS
UACC-257 melanoma = system: UACC-257 melanoma
SK-OV-3 ovarian = system: SK-OV-3 ovarian

## COc1ccc(-c2cc(C(=O)N3N=C(c4ccc(N)cc4)CC3c3ccc(Cl)cc3)c3ccccc3n2)cc1 (centres undefined)
M14 melanoma
  GI50: 1.16 µM
  TGI: > 100 µM
A498 renal
  GI50: 0.375 µM
  TGI: 0.914 µM
MDA-MB-231 breast
  GI50: 3.28 µM
  TGI: > 100 µM
SF-539 CNS
  GI50: 1.41 µM
  TGI: > 100 µM
SW-620 colon
  GI50: 1.24 µM
  TGI: > 100 µM
EKVX NSCLC
  GI50: 3.78 µM
  TGI: > 100 µM
DU-145 prostate
  GI50: 3.16 µM
  TGI: > 100 µM
SN12C renal
  GI50: 4.27 µM
  TGI: > 100 µM
NCI-H522 lung
  GI50: 0.307 µM
  TGI: 1.8 µM
OVCAR-4 ovarian
  GI50: 1.82 µM
  TGI: > 100 µM
ACHN renal
  GI50: 1.47 µM
  TGI: > 100 µM
IGROV1 ovarian
  GI50: 4.98 µM
  TGI: > 100 µM
OVCAR-5 ovarian
  GI50: 5.51 µM
  TGI: > 100 µM
OVCAR-3 ovarian
  GI50: 0.462 µM
  TGI: 8.55 µM
MALME-3M melanoma
  GI50: > 100 µM
  TGI: > 100 µM
HCC-2998 colon
  GI50: 3.4 µM
  TGI: > 100 µM
MCF7 breast
  GI50: 0.442 µM
  TGI: > 100 µM
HCT-15 colon
  GI50: 1.03 µM
  TGI: > 100 µM
HT29 colon
  GI50: 1.13 µM
  TGI: > 100 µM
MOLT-4 leukemia
  GI50: 3.3 µM
  TGI: > 100 µM
TK-10 renal
  GI50: 52.3 µM
  TGI: > 100 µM
RPMI-8226 leukemia
  GI50: 3.86 µM
  TGI: > 100 µM
COLO 205 colon
  GI50: 1.99 µM
  TGI: 6.58 µM
UO-31 renal
  GI50: 1.55 µM
  TGI: > 100 µM
SK-MEL-5 melanoma
  GI50: 0.701 µM
  TGI: 9.25 µM
SNB-19 CNS
  GI50: 5.54 µM
  TGI: > 100 µM
PC-3 prostate
  GI50: 2.03 µM
  TGI: > 100 µM
UACC-62 melanoma
  GI50: 0.556 µM
  TGI: > 100 µM
SF-295 CNS
  GI50: 0.54 µM
  TGI: > 100 µM
HOP-92 NSCLC
  GI50: 1.92 µM
  TGI: > 100 µM
SNB-75 CNS
  GI50: 0.371 µM
  TGI: 8.66 µM
SK-MEL-2 melanoma
  GI50: 2.03 µM
  TGI: > 100 µM
HOP-62 NSCLC
  GI50: 3.21 µM
  TGI: > 100 µM
BT-549 breast
  GI50: 2.04 µM
  TGI: 73 µM
HCT-116 colon
  GI50: 1.41 µM
  TGI: > 100 µM
OVCAR-8 ovarian
  GI50: 4.16 µM
  TGI: > 100 µM
NCI/ADR-RES ovarian
  GI50: 0.519 µM
  TGI: > 100 µM
K-562 leukemia
  GI50: 1.05 µM
  TGI: > 100 µM
CCRF-CEM leukemia
  GI50: 5.84 µM
  TGI: > 100 µM
NCI-H226 lung
  GI50: 7.54 µM
  TGI: > 100 µM
KM12 colon
  GI50: 1.15 µM
  TGI: > 100 µM
HL-60(TB) leukemia
  GI50: 2.54 µM
  TGI: > 100 µM
T-47D breast
  GI50: 2.71 µM
  TGI: > 100 µM
U251 CNS
  GI50: 2.18 µM
  TGI: > 100 µM
SR leukemia
  GI50: 0.595 µM
  TGI: > 100 µM
NCI-H460 lung
  GI50: 1.89 µM
  TGI: > 100 µM
786-0 renal
  GI50: 1.84 µM
  TGI: > 100 µM
A549 NSCLC
  GI50: 2.33 µM
  TGI: > 100 µM
LOX IMVI melanoma
  GI50: 1.56 µM
  TGI: > 100 µM
HS 578T breast
  GI50: 1.05 µM
  TGI: > 100 µM
SK-MEL-28 melanoma
  GI50: 3.78 µM
  TGI: > 100 µM
NCI-H23 lung
  GI50: 3.14 µM
  TGI: > 100 µM
RXF 393 renal
  GI50: 0.698 µM
  TGI: 8.22 µM
MDA-MB-435
  GI50: 0.305 µM
  TGI: 2.22 µM
SF-268 CNS
  GI50: 2.19 µM
  TGI: > 100 µM
UACC-257 melanoma
  GI50: > 100 µM
  TGI: > 100 µM
SK-OV-3 ovarian
  GI50: 3.32 µM
  TGI: > 100 µM
